Reference: US7888386B2, “3-(phenoxyphenylmethyl)pyrrolidine compounds” (Theravance, Inc., priority 2008, dated 2011)
Like-named read-outs stand apart in the source and are kept apart here.

Assays:
hNET = molecular target: T1, hNET (Homo sapiens, UniProt P23975); test: hNET binding assay (Assay 1)
T1 construct: expressed in transfected cells; host or cells: HEK-293 derived cell line, stably transfected; membrane preparation
Outline: (§1)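 Membranes from HEK-293 cells stably expressing human NET or SERT competed test compound against ^3H-nisoxetine (hNET) or ^3H-citalopram (hSERT). Buffer was 50 mM Tris-HCl pH 7.4, 120 mM NaCl, 5 mM KCl, 0.1% BSA and 400 μM ascorbic acid.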

hSERT = molecular target: T2, hSERT (Homo sapiens, UniProt P31645); test: hSERT binding assay (Assay 1)
T2 construct: expressed in transfected cells; host or cells: HEK-293 derived cell line, stably transfected; membrane preparation
Outline: as §1

[1] = Thermal analysis (DSC) of crystalline salt; assay type: physicochemical; conditions: crystalline monohydrochloride salt, heating ramp 10° C./min
Experimental: Differential scanning calorimetry (DSC) was performed using a TA Instruments Model Q-100 module with a Thermal Analyst controller. Data were collected and analyzed using TA Instruments Thermal Solutions software. A 1.64 mg sample of the crystalline form of Example 2 was accurately weighed into a covered aluminum pan. After a 5 minute isothermal equilibration period at 22° C., the sample was heated using a linear heating ramp of 10° C./min from 22° C. to 250° C.

[2] = hNET binding, read-out: NET pKi (converted)
[3] = ratio of SERT Ki to NET Ki (binding)

T1 sequence (P23975 whole entry): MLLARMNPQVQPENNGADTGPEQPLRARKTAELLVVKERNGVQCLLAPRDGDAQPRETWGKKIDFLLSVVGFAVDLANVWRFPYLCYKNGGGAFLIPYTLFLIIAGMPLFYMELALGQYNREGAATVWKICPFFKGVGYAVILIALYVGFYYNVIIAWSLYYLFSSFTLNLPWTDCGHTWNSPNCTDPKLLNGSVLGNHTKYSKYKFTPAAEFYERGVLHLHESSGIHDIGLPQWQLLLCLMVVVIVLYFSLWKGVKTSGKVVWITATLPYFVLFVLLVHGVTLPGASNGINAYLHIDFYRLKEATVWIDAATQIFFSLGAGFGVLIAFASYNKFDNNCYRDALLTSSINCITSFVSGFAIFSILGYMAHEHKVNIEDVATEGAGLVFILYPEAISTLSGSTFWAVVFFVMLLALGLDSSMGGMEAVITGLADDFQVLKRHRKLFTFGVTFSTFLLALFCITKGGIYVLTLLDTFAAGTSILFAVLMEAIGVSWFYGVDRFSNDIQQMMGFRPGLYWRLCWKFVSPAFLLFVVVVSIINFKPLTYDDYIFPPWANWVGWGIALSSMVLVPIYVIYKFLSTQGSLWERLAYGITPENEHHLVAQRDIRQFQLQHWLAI
T2 sequence (P31645 whole entry): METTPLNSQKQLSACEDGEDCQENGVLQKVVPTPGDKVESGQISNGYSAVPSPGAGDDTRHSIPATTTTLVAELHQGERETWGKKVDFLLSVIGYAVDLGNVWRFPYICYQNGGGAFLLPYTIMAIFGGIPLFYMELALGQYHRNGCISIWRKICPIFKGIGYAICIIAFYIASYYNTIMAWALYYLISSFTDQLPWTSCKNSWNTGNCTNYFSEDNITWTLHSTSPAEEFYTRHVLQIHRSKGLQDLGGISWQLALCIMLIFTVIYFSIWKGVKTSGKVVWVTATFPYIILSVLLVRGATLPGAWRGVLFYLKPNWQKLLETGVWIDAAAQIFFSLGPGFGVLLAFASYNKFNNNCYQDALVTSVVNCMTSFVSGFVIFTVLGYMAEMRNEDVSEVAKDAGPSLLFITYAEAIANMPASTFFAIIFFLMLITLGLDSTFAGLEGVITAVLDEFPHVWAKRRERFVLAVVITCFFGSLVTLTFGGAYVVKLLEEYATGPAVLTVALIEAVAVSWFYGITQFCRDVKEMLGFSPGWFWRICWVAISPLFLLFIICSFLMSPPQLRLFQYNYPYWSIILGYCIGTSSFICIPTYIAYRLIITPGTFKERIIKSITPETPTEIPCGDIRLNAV

In the case of `Fc1cc(F)c(Cl)c(O[C@@H](c2ccccc2)[C@H]2CCNC2)c1` [Ex. 8-1, (S)-3-[(R)-(2-Chloro-3,5-difluorophenoxy)phenylmethyl]pyrrolidine], the Ki (hNET; [2]) is reported as 2 nM and the “SERT Ki/NET Ki” value (hSERT; [3]) is reported as 2.5.

For `Fc1cccc(O[C@@H](c2ccccc2)[C@H]2CCNC2)c1Cl` [Ex. 9-4, (S)-3-[(R)-(2-chloro-3-fluorophenoxy)phenylmethyl]pyrrolidine], the Ki (hNET; membranes of HEK-293 cells expressing hNET, 1.0 nM 3H-nisoxetine, read-out: NET pKi (converted)) was 0.631 nM and the “SERT Ki/NET Ki” value (hSERT; ratio of binding Ki at hSERT to Ki at hNET, rounded off to the nearest tenth) was 6.3.

In the case of `Clc1cc(Cl)c(Cl)c(OC(c2ccccc2)C2CCNC2)c1Cl` (centres unmarked) [Ex. 10-2, 3-[phenyl-(2,3,5,6-tetrachlorophenoxy)methyl]pyrrolidine], the Ki (hNET; NET pKi, hNET binding, the tables list only compounds with NET pKi≧8) is reported as 1.26 nM and the “SERT Ki/NET Ki” value (hSERT; ratio of binding Ki at SERT to Ki at NET, the tables list only compounds with a ratio in the range 0.1-100) is reported as 0.1.

In the case of `Fc1cc(F)c(Cl)c(O[C@@H](c2ccccc2)[C@H]2CCNC2)c1Cl` [Ex. 11, (S)-3-[(R)-(2,6-dichloro-3,5-difluorophenoxy)phenylmethyl]pyrrolidine], the “no thermal decomposition below (DSC)” value [1] is reported as ≥ 190.7 °C.

For `Cc1ccc(F)c(O[C@@H](c2ccccc2)[C@H]2CCNC2)c1Cl` [Ex. 13, (S)-3-[(R)-(2-chloro-6-fluoro-3-methylphenoxy)phenylmethyl]pyrrolidine], the Ki (hNET; [2]) was 0.251 nM and the “SERT Ki/NET Ki” value (hSERT; [3]) was 1.3.

For `Fc1ccc(F)c(O[C@H](c2ccccc2)[C@@H]2CCNC2)c1Cl` [Ex. 14, (R)-3-[(S)-(2-chloro-3,6-difluorophenoxy)phenyl-methyl]pyrrolidine], the “no thermal decomposition below (DSC)” value [1] was ≥ 160 °C.

For `Clc1cc(Cl)cc(O[C@H](c2ccccc2)[C@@H]2CCNC2)c1` [Ex. 16, (R)-3-[(S)-(3,5-Dichlorophenoxy)phenylmethyl]pyrrolidine], the “no thermal decomposition below (DSC)” value [1] was ≥ 220 °C.
